Data reported in paper PMC5896373 (Molecular Pharmacology, 2018).
pEC50: −log10 of the molar value.

Columns and labels:
[1] = tested on: P2X7R left flipper point mutant D280A; assay: Two-electrode voltage clamp of ATP-evoked currents in Xenopus oocytes; format: cell-based, human
Method: (§1) The production of the correct mutations and absence of coding errors was determined by DNA sequencing (Automated ABI Sequencing Service, University of Leicester, UK). cRNA was generated for the mutants and 50 nl (50 ng) was injected into manually defoliculated stage V Xenopus laevis oocytes using an Inject+Matic microinjector (J.A. Gabay, Inject+Matic, Geneva, Switzerland). Injected oocytes were stored at 16°C in ND96 buffer [in millimolar concentrations, NaCl 96, KCl 2, CaCl2 1.8, MgCl2 1, sodium pyruvate 5, and HEPES 5 (pH 7.6) supplemented with 50 μg/ml gentamycin and 50 μg/ml tetracycline]. Three to seven days postinjection two-electrode voltage clamp recordings were made from oocytes bathed in divalent-free ND96 buffer (in millimolar concentrations, NaCl 96, KCl 2, sodium pyruvate 5, HEPES 5, and 0.1 flufenamic acid, pH 7.6). Oocytes were voltage clamped at a holding potential of −60 mV with a GeneClamp500B amplifier (Molecular Devices).
(§2) Inhibition by the antagonists was expressed as the percentage of the peak current amplitude of an EC90 concentration of ATP recorded before the application of antagonist (ATP gave reproducible responses to ATP in the absence of antagonist). Inhibition curves were fitted with the Hill equation (variable slope) using GraphPad Prism 6 (GraphPad Software, San Diego, CA). […]

[2] = tested on: P2X7R left flipper point mutant K281A; assay: as above; format: cell-based, human
Method: (§3) Injected oocytes were stored at 16°C in ND96 buffer [in millimolar concentrations, NaCl 96, KCl 2, CaCl2 1.8, MgCl2 1, sodium pyruvate 5, and HEPES 5 (pH 7.6) supplemented with 50 μg/ml gentamycin and 50 μg/ml tetracycline]. Three to seven days postinjection two-electrode voltage clamp recordings were made from oocytes bathed in divalent-free ND96 buffer (in millimolar concentrations, NaCl 96, KCl 2, sodium pyruvate 5, HEPES 5, and 0.1 flufenamic acid, pH 7.6). Oocytes were voltage clamped at a holding potential of −60 mV with a GeneClamp500B amplifier (Molecular Devices).
(§4) Electrophysiological traces were digitized with a Digidata 1322A and collected using pCLAMP 8.2 software (Molecular Devices, Menlo Park, CA). An EC90 concentration of ATP was used to test antagonist sensitivity for the P2X7-2Nβ and mutant receptors [ATP sensitivity of the chimeras and mutants are reported in [Allsopp et al. (2017)]] to standardize for any changes in ATP sensitivity.
(§5) Inhibition by the antagonists was expressed as the percentage of the peak current amplitude of an EC90 concentration of ATP recorded before the application of antagonist (ATP gave reproducible responses to ATP in the absence of antagonist). […] Any significant differences from the P2X7-2Nβ control were calculated by one-way analysis of variance, followed by Dunnett’s test (using GraphPad Prism 6). […]

[3] = tested on: P2X7R left flipper point mutant T282A; assay: as above; format: cell-based, human
Method: as §1, §2

[4] = tested on: P2X7R left flipper point mutant T283A; assay: as above; format: cell-based, human
Method: as §3, §4, §5

[5] = tested on: P2X7R left flipper point mutant N284A; assay: as above; format: cell-based, human
Method: as §1, §2

[6] = molecular target: T1, P2X7R point mutant R206A (Homo sapiens, UniProt Q99572, I21V/M24R/N16P/N25R/Q22R/R206A/R20V/S23N/T19I/Y26L); assay: as above; format: cell-based; details: mean ± S.E.M.
T1 construct: expressed in transfected cells; host or cells: Xenopus laevis oocytes (cRNA injection)
T1 sequence (Q99572 whole entry N16P/T19I/R20V/I21V/Q22R/S23N/M24R/N25R/Y26L/R206A): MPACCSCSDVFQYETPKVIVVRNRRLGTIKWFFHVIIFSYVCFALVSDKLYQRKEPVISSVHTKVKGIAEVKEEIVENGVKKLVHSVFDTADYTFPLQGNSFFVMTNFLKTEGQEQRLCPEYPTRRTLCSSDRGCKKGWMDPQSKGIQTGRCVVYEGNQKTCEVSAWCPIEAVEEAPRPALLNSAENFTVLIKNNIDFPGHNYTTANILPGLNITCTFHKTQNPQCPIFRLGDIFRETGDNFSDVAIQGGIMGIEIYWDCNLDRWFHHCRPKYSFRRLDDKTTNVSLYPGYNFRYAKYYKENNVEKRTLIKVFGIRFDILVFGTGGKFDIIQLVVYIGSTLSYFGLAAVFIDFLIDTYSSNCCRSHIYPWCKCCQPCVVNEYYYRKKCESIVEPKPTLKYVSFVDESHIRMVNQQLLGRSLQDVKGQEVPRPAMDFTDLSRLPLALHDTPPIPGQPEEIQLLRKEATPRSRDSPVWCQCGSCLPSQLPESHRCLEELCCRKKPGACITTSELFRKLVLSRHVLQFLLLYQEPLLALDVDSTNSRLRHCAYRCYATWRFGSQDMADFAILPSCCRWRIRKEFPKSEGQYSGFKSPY
Method: as §3, §4, §5

[7] = molecular target: T2, P2X7R point mutant K193A (Homo sapiens, UniProt Q99572, I21V/K193A/M24R/N16P/N25R/Q22R/R20V/S23N/T19I/Y26L); assay: as above; format: cell-based
T2 construct: expressed in transfected cells; host or cells: Xenopus laevis oocytes (cRNA injection)
T2 sequence (Q99572 whole entry N16P/T19I/R20V/I21V/Q22R/S23N/M24R/N25R/Y26L/K193A): as the sequence (Q99572 whole entry N16P/T19I/R20V/I21V/Q22R/S23N/M24R/N25R/Y26L/R206A) above, with K193A, A206R counted along it
Method: as §3, §4, §5

[8] = molecular target: T3, chimeric P2X7R with left flipper 280–284 of P2X4 (Homo sapiens, UniProt Q99572, D280T/I21V/K281R/M24R/N16P/N25R/N284E/Q22R/R20V/S23N/T19I/T282D/T283V/Y26L); details: chimera 280–284 of P2X4
T3 sequence (Q99572 1-595 N16P/T19I/R20V/I21V/Q22R/S23N/M24R/N25R/Y26L/D280T/K281R/T282D/T283V/N284E): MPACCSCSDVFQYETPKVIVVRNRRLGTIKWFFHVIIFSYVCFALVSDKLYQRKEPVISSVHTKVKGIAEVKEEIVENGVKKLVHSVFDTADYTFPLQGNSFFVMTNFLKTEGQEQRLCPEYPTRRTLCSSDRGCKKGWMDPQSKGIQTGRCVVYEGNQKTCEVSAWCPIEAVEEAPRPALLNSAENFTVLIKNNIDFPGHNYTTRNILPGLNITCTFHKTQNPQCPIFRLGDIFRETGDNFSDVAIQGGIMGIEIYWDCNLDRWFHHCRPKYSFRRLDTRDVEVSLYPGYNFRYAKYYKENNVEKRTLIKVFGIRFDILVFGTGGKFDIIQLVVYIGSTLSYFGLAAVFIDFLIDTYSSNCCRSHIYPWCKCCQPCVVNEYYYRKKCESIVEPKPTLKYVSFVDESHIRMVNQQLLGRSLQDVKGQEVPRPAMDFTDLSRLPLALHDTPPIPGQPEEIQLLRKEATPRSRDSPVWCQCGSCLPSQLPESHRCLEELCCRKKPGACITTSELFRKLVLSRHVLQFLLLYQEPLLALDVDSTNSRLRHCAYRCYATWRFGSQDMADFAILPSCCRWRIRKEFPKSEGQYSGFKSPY
Method: as §1
Inhibition by the antagonists was expressed as the percentage of the peak current amplitude of an EC90 concentration of ATP recorded before the application of antagonist (ATP gave reproducible responses to ATP in the absence of antagonist). Inhibition curves were fitted with the Hill equation (variable slope) using GraphPad Prism 6 (GraphPad Software, San Diego, CA). […] Individual concentration-response curves were generated for individual experiments, and statistical analysis was carried out on the data generated. […] Data are shown as mean ± S.E.M. In all cases n ≥ 3 for all data points.

[9] = molecular target: T4, chimeric P2X7/1 receptor 279–285 (left flipper) (Homo sapiens, UniProt Q99572, DEL279-281/I21V/M24R/N16P/N25R/N284E/Q22R/R20V/S23N/T19I/T282Y/T283E/V285K/Y26L); set-up: method as in Allsopp et al., 2017; details: chimera 279–285; ref Allsopp et al., 2017; cited from earlier work
T4 construct: expressed in transfected cells; host or cells: Xenopus laevis oocytes (cRNA injection)
T4 sequence (Q99572 with tags, fused parts or gaps N16P/T19I/R20V/I21V/Q22R/S23N/M24R/N25R/Y26L/DEL279-281/T282Y/T283E/N284E/V285K): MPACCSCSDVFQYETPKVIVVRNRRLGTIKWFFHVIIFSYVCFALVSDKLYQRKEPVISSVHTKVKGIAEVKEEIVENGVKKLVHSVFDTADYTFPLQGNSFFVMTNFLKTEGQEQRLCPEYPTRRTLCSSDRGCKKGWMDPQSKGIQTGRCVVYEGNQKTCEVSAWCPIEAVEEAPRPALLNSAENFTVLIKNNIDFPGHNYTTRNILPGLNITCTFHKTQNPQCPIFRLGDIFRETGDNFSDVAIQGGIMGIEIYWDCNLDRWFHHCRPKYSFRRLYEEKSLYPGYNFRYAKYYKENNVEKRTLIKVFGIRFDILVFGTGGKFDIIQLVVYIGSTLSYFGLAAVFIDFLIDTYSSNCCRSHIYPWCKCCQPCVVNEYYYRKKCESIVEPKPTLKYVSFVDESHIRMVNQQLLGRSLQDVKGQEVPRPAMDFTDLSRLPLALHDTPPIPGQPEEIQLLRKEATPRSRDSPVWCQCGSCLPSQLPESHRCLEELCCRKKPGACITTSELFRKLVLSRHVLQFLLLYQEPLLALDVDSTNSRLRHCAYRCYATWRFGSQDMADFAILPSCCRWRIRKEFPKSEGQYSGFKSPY

[10] = tested on: P2X7R; set-up: method as in North, 2002; Kaczmarek-Hajek et al., 2012; details: physiologic concentrations of calcium and magnesium; ref North, 2002; Kaczmarek-Hajek et al., 2012; cited from earlier work
[11] = tested on: other P2XR subtypes; set-up: method as in North, 2002; Kaczmarek-Hajek et al., 2012; details: ref North, 2002, Kaczmarek-Hajek et al., 2012; cited from earlier work

Nc1ncnc2c1ncn2[C@@H]1O[C@H](COP(=O)(O)OP(=O)(O)OP(=O)(O)O)[C@@H](O)[C@H]1O [ATP]
fold increase in ATP potency [1]: 15 fold | fold decrease in ATP sensitivity [2]: 2 fold | effect on ATP sensitivity [3]: no effect | fold decrease in ATP sensitivity [4]: 3.4 fold | effect on ATP sensitivity [5]: no effect | ATP sensitivity pEC50 [6]: 4.33 ± 0.06 | amplitude of ATP-evoked responses [7]: < 100 nA | fold increase in ATP sensitivity/potency [8]: ~15 fold | fold increase in sensitivity to ATP [9]: ~30 fold | pEC50 [10]: 3.00 to 3.52 | pEC50 [11]: 4.52 to 6.00
